Literature values as cited in US20110075702A1, “THERMAL SENSING EQUIPMENT AND THERMAL SENSING PROCESS” (JOHNSON CONTROLS TECHNOLOGY COMPANY, priority 2007, published 2011).

Tests used:
[1] = @ 20° C. (68° F.)

In the case of `CC(=O)OCC(C)OC(C)=O` (stereo not shown) [THERMAL FLUID #2, propylene glycol diacetate], the “Solubility in Water” value [1] is given as 77 mg/mL, the “NFPA Fire” value (NFPA fire diamond Flammability Value) is given as 2 and the “NFPA Health” value (NFPA fire diamond Health Value) is given as 1. The “NFPA Reactivity” value (NFPA fire diamond Reactivity Value) was 0.
